From PMC12340087, “Guanine is an inhibitor of c-jun terminal kinases” (Scientific Reports, 2025)

Tests used:
Assay in all cases: radiometric […]-ATP kinase assay, ATF2 substrate, ATP at apparent Km
Type in all cases: biochemical
JNK1 = biological target: T1, JNK1 (Homo sapiens, UniProt P45983)
T1 construct: gene MAPK8; untagged JNK1 (amino acids 1-384)

JNK3 = biological target: T2, JNK3 (Homo sapiens, UniProt P53779)
T2 construct: gene MAPK10; GST-tagged JNK3 (amino acids 1-426)

JNK2 = biological target: T3, JNK2 (Homo sapiens, UniProt P45984)
T3 construct: gene MAPK9; untagged JNK2 (amino acids 1-424)
T3 sequence (P45984 whole entry, the tested form may be a part): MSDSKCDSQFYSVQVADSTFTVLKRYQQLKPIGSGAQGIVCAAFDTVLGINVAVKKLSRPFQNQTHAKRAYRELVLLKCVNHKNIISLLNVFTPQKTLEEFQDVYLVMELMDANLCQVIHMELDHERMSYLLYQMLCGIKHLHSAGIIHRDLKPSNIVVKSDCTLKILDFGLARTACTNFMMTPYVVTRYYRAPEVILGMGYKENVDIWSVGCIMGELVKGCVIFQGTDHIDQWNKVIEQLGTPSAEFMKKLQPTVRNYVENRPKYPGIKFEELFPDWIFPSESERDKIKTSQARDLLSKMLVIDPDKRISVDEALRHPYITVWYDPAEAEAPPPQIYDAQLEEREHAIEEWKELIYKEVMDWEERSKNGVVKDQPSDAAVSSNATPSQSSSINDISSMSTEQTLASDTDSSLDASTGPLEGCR

T1 sequence (P45983 1-384 isoform P45983-2): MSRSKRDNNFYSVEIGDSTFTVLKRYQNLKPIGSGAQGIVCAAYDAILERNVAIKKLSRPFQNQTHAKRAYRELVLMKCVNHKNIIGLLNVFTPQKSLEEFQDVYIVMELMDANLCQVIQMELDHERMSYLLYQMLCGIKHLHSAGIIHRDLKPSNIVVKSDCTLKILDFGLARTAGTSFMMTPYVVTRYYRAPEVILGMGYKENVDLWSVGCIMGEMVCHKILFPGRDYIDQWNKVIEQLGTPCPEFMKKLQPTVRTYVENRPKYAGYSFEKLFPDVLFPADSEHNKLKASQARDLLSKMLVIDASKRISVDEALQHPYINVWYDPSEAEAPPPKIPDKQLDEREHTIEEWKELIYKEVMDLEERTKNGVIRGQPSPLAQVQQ
T2 sequence (P53779 1-426): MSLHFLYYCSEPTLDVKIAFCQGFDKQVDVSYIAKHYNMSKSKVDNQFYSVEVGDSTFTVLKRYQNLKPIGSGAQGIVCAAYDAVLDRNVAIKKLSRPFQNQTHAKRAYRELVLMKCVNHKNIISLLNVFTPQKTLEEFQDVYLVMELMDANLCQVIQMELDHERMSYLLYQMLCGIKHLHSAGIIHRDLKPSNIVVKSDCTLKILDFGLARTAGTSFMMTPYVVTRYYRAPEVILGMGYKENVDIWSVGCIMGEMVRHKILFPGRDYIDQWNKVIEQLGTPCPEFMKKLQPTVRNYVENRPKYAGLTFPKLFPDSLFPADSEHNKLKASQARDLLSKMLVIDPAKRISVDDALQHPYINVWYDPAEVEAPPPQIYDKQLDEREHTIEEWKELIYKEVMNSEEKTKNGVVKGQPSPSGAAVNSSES

SMILES: Nc1nc2nc[nH]c2c(=O)[nH]1 [G, guanine]
- IC50 (JNK1): 200 µM
- IC50 (JNK3): 330 µM
- IC50 (JNK2): 180 µM
